Measured values: patent publication US11452731B2, “Method of treating and preventing loss of cognition” (ENDORECHERCHE, INC., priority 2009, dated 2022)
“Also recorded” adds a separate entry of the source.

How the values were obtained:
[1] = Uterine, vaginal and body weight in estrone-supplemented OVX nude mice (Example 1); assay type: in vivo
Protocol: DHEA was dissolved in 50% ethanol 50% propylene glycol. […] Tumors were measured once a week with Vernier calipers.

[2] = 10% DHEA cream once daily for 12 months in 60 to 70 year old women; assay type: in vivo
Excerpt: The use of estrogen replacement therapy requires the addition of progestins to counteract the endometrial proliferation induced by estrogens while both estrogens and progestins could increase the risk of breast cancer (Bardon et al., 1985; Colditz et al., 1995). In order to avoid the limitations of standard estrogen (ERT) or hormonal replacement therapy (HRT), we have studied the effect of DHEA administration to 60 to 70 year old women for 12 months on bone mineral density, parameters of bone formation and turnover, serum lipids, glucose and insulin, adipose tissue mass, muscular mass, energy, well-being as well as on vaginal and endometrial histology (Diamond et al., 1996; Labrie et al., 1997c). DHEA was administered percutaneously to avoid first passage of the steroid precursor through the liver.
We have thus evaluated the effect of chronic replacement therapy with a 10% DHEA cream applied once daily for 12 months in 60 to 70 year old women (N=15). […] These changes in bone mineral density were accompanied by significant decreases at 12 months of 38% and 22% in urinary hydroxyproline and in plasma bone alkaline phosphatase, respectively (all p<0.05).

[3] = 9-month treatment with DHEA and/or EM-800 in the rat: urinary and serum markers of bone metabolism; assay type: in vivo
Excerpt: It is particularly important to indicate that the combination of DHEA and EM-800 exerted unexpected beneficial effects on important biochemical parameters of bone metabolism. […] Moreover, no effect of DHEA could be detected on daily urinary calcium or phosphorus excretion (Luo et al., 1997). EM-800 decreased the urinary hydroxyproline/creatinine ratio by 48% while, similarly to DHEA, no effect of EM-800 was seen on urinary calcium or phosphorus excretion. EM-800, moreover, had no effect on serum alkaline phosphatase activity, a marker of bone formation while DHEA increased the value of the parameter by about 75% (Luo et al., 1997).

[4] = 5-week treatment of ovariectomized rats with SERMs alone or with DHEA: BMD of lumbar spine, femur, tibia (Example 5); assay type: in vivo, rat; conditions: OVX rats, 5 weeks; for LUMBAR SPINE (L2-L4) BMD / LUMBAR SPINE (L2-L4) Prevention of Bone Loss: SERMs 2.5 mg/kg, DHEA 80 mg/kg
Protocol: (§1) Ten to twelve week-old female Sprague-Dawley rats (Crl:CD(SD)Br) (Charles River Laboratory, St-Constant, Canada) weighing approximately 220-270 g at start of treatment were used. The animals were acclimatized to the environmental conditions (temperature: 22±3° C.; humidity: 50±20%; 12-h light-12-h dark cycles, lights on at 07:15 h) for at least 1 week before starting the experiments. The animals were housed individually and were allowed free access to tap water and a pelleted certified rodent feed (Lab Diet 5002, Ralston Purina, St-Louis, Mo.). Experiments were conducted in an animal facility approved by the Canadian Council on Animal Care (CCAC) and the Association for Assessment and Accreditation of Laboratory Animal Care (AAALAC) in accordance with the CCAC Guide for Care and Use of Experimental Animals.
On day 1 of the study, the animals of the appropriate groups were bilaterally ovariectomized (Ovx) under isoflurane anesthesia. The DHEA was applied topically on the dorsal skin as a solution in 50% ethanol-50% propylene glycol while the tested SERMs were administered as suspension in 0.4% methylcellulose by oral gavage. Treatments were initiated on day 2 of the study and were performed once daily during 5 weeks.
After 5 weeks of treatment, individual rats under Isoflurane anesthesia had their lumbar spine, femur and tibia scanned using dual energy x-ray absorptiometry (DEXA; QDR 4500A, Hologic, Waltham, Mass.) and a Regional High Resolution Scan software. The bone mineral density (BMD) of the lumbar spine (vertebrae L2 to L4), distal femoral metaphysis (DFM) and proximal tibial metaphysis (PTM) were determined.

[5] = 3-month treatment of ovariectomized rats: lumbar spine BMD, total body fat, serum cholesterol, ALP (Example 4, experiment 1); assay type: in vivo, rat; conditions: OVX rats, 3 months; for LUMBAR SPINE BMD / LUMBAR SPINE Prevention of Bone Loss: E2 1 mg/kg, EM-652.HCl 2.5 mg/kg, DHEA 80 mg/kg
Protocol: as §1
On day 1 of the study, the animals of the appropriate groups were bilaterally ovariectomized (OVX) under isoflurane anesthesia. The DHEA was applied topically on the dorsal skin as a solution in 50% ethanol-50% propylene glycol while the other tested compounds were administered as suspension in 0.4% methylcellulose by oral gavage. Treatments were initiated on day 2 of the study and were performed once daily during 3 months.
After 3 months (experiment 1) or 26 weeks (experiment 2) of treatment, individual rats under Isoflurane anesthesia had their whole body skeleton and lumbar spine scanned using dual energy x-ray absorptiometry (DEXA; QDR 4500A, Hologic, Waltham, Mass.) and a Regional High Resolution Scan software. The bone mineral density (BMD) of the lumbar spine (vertebrae L2 to L4) and the total body composition (fat percentage) were determined.
After 3 months (experiment 1) or 26 weeks (experiment 2) of treatment, blood samples were collected at the jugular vein from overnight fasted animals (under Isoflurane anesthesia). Samples were processed for serum preparation and frozen at −80° C. until assay. Serum cholesterol levels and alkaline phospatase activity (ALP) were determined using the Boehringer Mannheim Diagnostic Hitachi 911 Analyzer (Boehringer Mannheim Diagnostic Laboratory Systems).

[6] = 12-month treatment of ovariectomized rats with DHEA alone or with Flutamide or EM-800: bone histomorphometry, bone markers, serum lipids; assay type: in vivo, rat; conditions: 12 months
[7] = DHEA 10 mg, EM-800 75 μg, alone or combined

C[C@]12CC[C@H](O)CC1=CC[C@@H]1[C@@H]2CC[C@]2(C)C(=O)CC[C@@H]12 [DHEA, dehydroepiandrosterone]
effect on body weight adjusted for tumor weight ([1]; 9.5 months): No significant effect | inhibition of the stimulatory effect of estrone on uterine weight ([1]; highest dose of DHEA used): 26% | decrease in fasting plasma insulin levels [2]: 17% | decrease in plasma bone alkaline phosphatase [2]: 22% | decrease in subcutaneous skin fold thickness [2]: 9.8% | decrease in urinary hydroxyproline [2]: 38% | decrease of fasting plasma glucose [2]: 12% | decrease of femoral fat (mid-thigh, computed tomography) [2]: 3.8% | effect on the endometrium [2]: remained completely atrophic | increase in femoral muscular area [2]: 3.5% | increase of bone mass density at the hip [2]: 2.3% | increase of bone mass density at the hip Ward's triangle [2]: 3.75% | increase of bone mass density at the lumbar spine level [2]: 2.2% | increase of the index of sebum secretion [2]: 79% | increase over control in plasma osteocalcin [2]: 135% | women with stimulated vaginal epithelium maturation among those with a maturation value of zero at onset [2]: 8 out of 10 | decrease of urinary hydroxyproline/creatinine ratio (marker of bone resorption) [3]: did not affect; also recorded: did not show any effect | effect on daily urinary calcium or phosphorus excretion [3]: no effect | increase of serum alkaline phosphatase activity (marker of bone formation) [3]: about 75% | Serum tALP [3, 7]: 198.38 ± 30.76 IU/L | Urine HP/Cr [3, 7]: 14.02 ± 1.59 μmol/mmol | Urine calcium [3, 7]: 25.87 ± 3.54 μmol/24 h/100 g | Urine phosphorus [3, 7]: 151.41 ± 14.57 μmol/24 h/100 g | DISTAL FEMORAL METAPHYSIS (DFM) BMD [4]: 0.2934 ± 0.0046 g/cm^2 | DISTAL FEMORAL METAPHYSIS (DFM) Prevention of Bone Loss [4]: 71% | PROXIMAL TIBIAL METAPHYSIS (PFM) BMD [4]: 0.2672 ± 0.0041 g/cm^2 | PROXIMAL TIBIAL METAPHYSIS (PFM) Prevention of Bone Loss [4]: 42% | LUMBAR SPINE (L2-L4) BMD [4]: 0.2144 ± 0.0028 g/cm^2 | LUMBAR SPINE (L2-L4) Prevention of Bone Loss [4]: 44% | ALP (serum alkaline phosphatase activity) [5]: 224±18 IU/L | CHOLESTEROL (serum) [5]: 1.59 ± 0.10 mmol/L | TOTAL FAT [5]: 17.3 ± 1.5 % | LUMBAR SPINE BMD [5]: 0.2321 ± 0.0034 g/cm^2 | LUMBAR SPINE Prevention of Bone Loss [5]: 43% | reduction of serum cholesterol versus OVX control [6]: 22% | Alkaline phosphatase (serum) ([6]; OVX rats): 201±25 IU/L | CHOLESTEROL (serum) ([6]; OVX rats): 1.78 ± 0.16 mmol/L | OH-proline/creatinin (urine) ([6]; OVX rats): 7.3±1.0 μmol/mmol | Triglycerides (serum) ([6]; OVX rats): 0.8 ± 0.1 mmol/L | increase in trabecular bone number compared to ovariectomized controls ([6]; OVX rats): 137% | trabecular bone number ([6]; OVX rats): 1.27±0.1 per mm | trabecular bone volume of the tibia ([6]; OVX rats): 11.9±0.6%

CC1=C(c2ccc(O)cc2)[C@H](c2ccc(OCCN3CCCCC3)cc2)Oc2cc(O)ccc21.Cl [EM-652.HCl, (S)-(+)-7-hydroxy-3-(4′-hydroxyphenyl)-4-methyl-2-(4″-(2′″-piperidinoethoxy)phenyl)-2H-1-benzopyran hydrochloride]
DISTAL FEMORAL METAPHYSIS (DFM) BMD [4]: 0.3008 ± 0.0055 g/cm^2 | DISTAL FEMORAL METAPHYSIS (DFM) Prevention of Bone Loss [4]: 95% | PROXIMAL TIBIAL METAPHYSIS (PFM) BMD [4]: 0.2806 ± 0.0035 g/cm^2 | PROXIMAL TIBIAL METAPHYSIS (PFM) Prevention of Bone Loss [4]: 92% | LUMBAR SPINE (L2-L4) BMD [4]: 0.2232 ± 0.0031 g/cm^2 | LUMBAR SPINE (L2-L4) Prevention of Bone Loss [4]: 86% | ALP (serum alkaline phosphatase activity) [5]: 91 ± 6 IU/L | CHOLESTEROL (serum) [5]: 0.87 ± 0.04 mmol/L | LUMBAR SPINE BMD [5]: 0.2374 ± 0.0027 g/cm^2 | LUMBAR SPINE Prevention of Bone Loss [5]: 65% | TOTAL FAT ([5]; hydrochloride): completely prevented | TOTAL FAT ([5]; listed as EM-652•HCl, hydrochloride): 23.2 ± 1.4 %
